# Measured values: ChEMBL document CHEMBL1201862, “PubChem BioAssay data set” (2004)
# Activity calls are given as the source filed them.
# What was measured:
# [1] = bead-based luminescence quenchers, dual-tagged ARNT – biochemical, AlphaScreen, cherry-pick, artefact control for ARNT-TACC3 interaction inhibitor project, dose response (AID 651705); assay type: functional;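 further: AlphaScreen bead proximity signal that flags compounds interfering with the detection technology; potency reflects signal decrease which marks the compound as an assay artifact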
# [2] = target: T1, Dual specificity protein phosphatase 3 (Homo sapiens, UniProt P51452); assay: VHR1 phosphatase inhibitors, primary screen, biochemical, absorbance, uHTS (AID 1654)
# T1 sequence (P51452 whole entry): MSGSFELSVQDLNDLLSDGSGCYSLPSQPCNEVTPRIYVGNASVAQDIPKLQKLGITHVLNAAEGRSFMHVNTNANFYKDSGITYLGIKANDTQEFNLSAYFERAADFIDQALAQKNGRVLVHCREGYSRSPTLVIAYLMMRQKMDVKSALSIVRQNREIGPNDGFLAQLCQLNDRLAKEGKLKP
# [3] = target: T1, Dual specificity protein phosphatase 3; assay: VHR1 phosphatase inhibitors, biochemical (AID 1878)
# [4] = target: T2, Dual specificity protein phosphatase 6 (Rattus norvegicus, UniProt Q64346); assay: inhibition of rat DUSP6 enzyme activity – biochemical, in vitro, primary screen (AID 425)
# T2 sequence (Q64346 whole entry): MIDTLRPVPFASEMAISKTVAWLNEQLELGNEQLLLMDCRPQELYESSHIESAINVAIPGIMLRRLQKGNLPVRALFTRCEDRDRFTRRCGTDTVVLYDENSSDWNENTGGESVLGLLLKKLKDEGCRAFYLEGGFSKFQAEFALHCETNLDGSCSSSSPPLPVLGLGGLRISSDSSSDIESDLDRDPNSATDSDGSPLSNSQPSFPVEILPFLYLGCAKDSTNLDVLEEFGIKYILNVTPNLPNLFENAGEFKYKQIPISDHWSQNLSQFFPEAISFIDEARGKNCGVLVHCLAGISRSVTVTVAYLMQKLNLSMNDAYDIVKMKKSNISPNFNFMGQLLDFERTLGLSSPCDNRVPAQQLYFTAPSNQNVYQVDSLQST
# [5] = target: Genome polyprotein (dengue virus type 2, UniProt P29990); assay: flavivirus cap methylation enzyme inhibition – biochemical, confirmation dose response, primary screen (AID 588689); assay type: functional
# Sequence of Genome polyprotein (P29990 2492-3391 limits assumed): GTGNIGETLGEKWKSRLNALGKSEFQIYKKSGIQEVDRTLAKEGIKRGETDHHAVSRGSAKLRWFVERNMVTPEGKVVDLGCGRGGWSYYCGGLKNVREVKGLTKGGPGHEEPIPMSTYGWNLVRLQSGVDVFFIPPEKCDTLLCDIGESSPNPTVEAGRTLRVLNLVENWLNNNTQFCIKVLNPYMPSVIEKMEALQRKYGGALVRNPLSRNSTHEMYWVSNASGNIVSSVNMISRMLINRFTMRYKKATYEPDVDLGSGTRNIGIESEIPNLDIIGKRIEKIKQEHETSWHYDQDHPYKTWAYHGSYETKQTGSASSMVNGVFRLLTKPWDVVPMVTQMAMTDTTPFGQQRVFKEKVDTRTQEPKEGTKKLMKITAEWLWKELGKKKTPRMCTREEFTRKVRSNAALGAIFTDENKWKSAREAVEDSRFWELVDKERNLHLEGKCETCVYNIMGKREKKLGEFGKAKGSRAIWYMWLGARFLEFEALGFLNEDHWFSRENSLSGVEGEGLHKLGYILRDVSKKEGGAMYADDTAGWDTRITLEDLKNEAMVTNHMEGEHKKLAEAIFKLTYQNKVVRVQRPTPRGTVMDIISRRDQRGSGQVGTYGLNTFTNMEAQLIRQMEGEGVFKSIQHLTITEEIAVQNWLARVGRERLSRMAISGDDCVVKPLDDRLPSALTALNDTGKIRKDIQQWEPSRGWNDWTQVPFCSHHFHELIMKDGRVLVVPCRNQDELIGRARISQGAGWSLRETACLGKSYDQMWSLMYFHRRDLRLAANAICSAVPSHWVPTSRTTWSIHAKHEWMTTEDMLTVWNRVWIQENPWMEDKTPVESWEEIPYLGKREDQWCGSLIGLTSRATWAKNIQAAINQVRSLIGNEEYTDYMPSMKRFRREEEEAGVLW
# [6] = target: T3, Carboxy-terminal domain RNA polymerase II polypeptide A small phosphatase 1 (Homo sapiens, UniProt Q9GZU7); assay: CTDSP1 inhibitors, concentration-response, biochemical, absorbance readout, ultra-high-throughput screen actives (AID 540297); assay type: functional
# T3 sequence (Q9GZU7 whole entry): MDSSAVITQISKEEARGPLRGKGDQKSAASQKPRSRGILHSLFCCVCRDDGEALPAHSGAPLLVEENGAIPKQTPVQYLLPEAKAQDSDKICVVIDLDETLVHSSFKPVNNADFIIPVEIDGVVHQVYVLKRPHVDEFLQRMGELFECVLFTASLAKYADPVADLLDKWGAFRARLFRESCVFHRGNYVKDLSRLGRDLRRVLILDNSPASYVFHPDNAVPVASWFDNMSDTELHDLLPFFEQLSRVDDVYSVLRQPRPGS
# [7] = target: Tyrosine-protein phosphatase non-receptor type 11 (Homo sapiens, UniProt Q06124); assay: PTPN11 enzyme inhibitors – biochemical, selectivity assay for STEP inhibitor project, dose response (AID 602367); assay type: functional; conditions: read-out: IC50_Mean
# Sequence of Tyrosine-protein phosphatase non-receptor type 11 (Q06124 whole entry): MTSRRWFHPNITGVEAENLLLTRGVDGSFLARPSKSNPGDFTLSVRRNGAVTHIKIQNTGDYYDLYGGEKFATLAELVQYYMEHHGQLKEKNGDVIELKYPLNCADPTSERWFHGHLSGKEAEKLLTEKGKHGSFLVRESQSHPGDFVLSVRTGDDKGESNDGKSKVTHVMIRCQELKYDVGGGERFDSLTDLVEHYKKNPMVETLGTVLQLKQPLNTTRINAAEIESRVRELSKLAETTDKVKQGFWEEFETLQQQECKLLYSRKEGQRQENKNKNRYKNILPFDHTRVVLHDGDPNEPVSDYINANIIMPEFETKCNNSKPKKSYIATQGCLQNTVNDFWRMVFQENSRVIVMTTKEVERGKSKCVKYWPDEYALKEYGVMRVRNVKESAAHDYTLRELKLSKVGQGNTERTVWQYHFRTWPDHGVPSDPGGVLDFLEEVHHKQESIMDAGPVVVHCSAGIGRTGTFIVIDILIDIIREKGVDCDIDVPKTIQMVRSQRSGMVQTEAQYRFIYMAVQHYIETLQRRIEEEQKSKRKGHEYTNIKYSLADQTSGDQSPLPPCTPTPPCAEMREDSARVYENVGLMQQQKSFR
# [8] = target: Tyrosine-protein phosphatase non-receptor type 5 (Homo sapiens, UniProt P54829); assay: PTPN5 enzyme inhibition – biochemical, fluorescence intensity, uHTS hits, confirmation (AID 602372); assay type: functional; conditions: read-out: IC50_Mean
# Sequence of Tyrosine-protein phosphatase non-receptor type 5 (P54829 whole entry): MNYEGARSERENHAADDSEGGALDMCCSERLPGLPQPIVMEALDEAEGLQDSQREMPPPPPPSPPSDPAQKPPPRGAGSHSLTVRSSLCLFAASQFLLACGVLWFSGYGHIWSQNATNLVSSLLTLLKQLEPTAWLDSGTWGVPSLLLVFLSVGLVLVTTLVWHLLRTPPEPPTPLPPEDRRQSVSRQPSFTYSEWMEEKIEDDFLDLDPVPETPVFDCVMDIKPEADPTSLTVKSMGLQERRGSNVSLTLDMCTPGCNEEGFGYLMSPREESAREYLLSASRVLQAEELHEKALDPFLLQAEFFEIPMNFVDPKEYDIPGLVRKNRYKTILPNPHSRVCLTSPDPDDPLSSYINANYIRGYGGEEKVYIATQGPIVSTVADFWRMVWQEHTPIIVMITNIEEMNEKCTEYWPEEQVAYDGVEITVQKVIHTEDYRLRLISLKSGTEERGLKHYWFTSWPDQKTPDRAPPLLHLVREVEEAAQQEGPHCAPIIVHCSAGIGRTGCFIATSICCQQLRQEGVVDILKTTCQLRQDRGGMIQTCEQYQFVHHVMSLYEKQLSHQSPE
# [9] = target: T1, Dual specificity protein phosphatase 3; assay: VHR phosphatase inhibition, dose response, selectivity assay for STEP inhibitor project, biochemical (AID 602374); assay type: functional; conditions: read-out: IC50_Mean
# [10] = target: T4, Small ubiquitin-related modifier 1 (Homo sapiens, UniProt P63165); assay: SUMO1 protein interaction blockers, potency – biochemical, fluorescence polarization, uHTS hits, dose response (AID 624382); assay type: functional; conditions: read-out: IC50_Mean
# T4 sequence (P63165 whole entry): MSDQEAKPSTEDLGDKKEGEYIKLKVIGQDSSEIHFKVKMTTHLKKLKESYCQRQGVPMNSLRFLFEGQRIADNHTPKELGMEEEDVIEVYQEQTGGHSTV
# [11] = target: T5, Low molecular weight phosphotyrosine protein phosphatase (Homo sapiens, UniProt P24666); assay type: functional; conditions: read-out: IC50_Mean
# T5 sequence (P24666 whole entry): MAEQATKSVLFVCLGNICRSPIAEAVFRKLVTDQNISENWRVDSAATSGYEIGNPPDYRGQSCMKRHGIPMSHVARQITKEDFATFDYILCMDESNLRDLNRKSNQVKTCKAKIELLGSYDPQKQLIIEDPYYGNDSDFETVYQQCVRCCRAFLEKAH
# [12] = target: T4, Small ubiquitin-related modifier 1; assay: SUMO1 protein-protein binding blockers, potency – biochemical, FRET, dose response (AID 624383); assay type: functional; conditions: read-out: IC50_Mean
# [13] = target: T6, Tyrosine-protein phosphatase non-receptor type 22 (Homo sapiens, UniProt Q9Y2R2); assay: lymphoid phosphatase LYP inhibitors – biochemical, selectivity assay for STEP inhibitor project, dose response (AID 624241); assay type: functional
# T6 sequence (Q9Y2R2 whole entry): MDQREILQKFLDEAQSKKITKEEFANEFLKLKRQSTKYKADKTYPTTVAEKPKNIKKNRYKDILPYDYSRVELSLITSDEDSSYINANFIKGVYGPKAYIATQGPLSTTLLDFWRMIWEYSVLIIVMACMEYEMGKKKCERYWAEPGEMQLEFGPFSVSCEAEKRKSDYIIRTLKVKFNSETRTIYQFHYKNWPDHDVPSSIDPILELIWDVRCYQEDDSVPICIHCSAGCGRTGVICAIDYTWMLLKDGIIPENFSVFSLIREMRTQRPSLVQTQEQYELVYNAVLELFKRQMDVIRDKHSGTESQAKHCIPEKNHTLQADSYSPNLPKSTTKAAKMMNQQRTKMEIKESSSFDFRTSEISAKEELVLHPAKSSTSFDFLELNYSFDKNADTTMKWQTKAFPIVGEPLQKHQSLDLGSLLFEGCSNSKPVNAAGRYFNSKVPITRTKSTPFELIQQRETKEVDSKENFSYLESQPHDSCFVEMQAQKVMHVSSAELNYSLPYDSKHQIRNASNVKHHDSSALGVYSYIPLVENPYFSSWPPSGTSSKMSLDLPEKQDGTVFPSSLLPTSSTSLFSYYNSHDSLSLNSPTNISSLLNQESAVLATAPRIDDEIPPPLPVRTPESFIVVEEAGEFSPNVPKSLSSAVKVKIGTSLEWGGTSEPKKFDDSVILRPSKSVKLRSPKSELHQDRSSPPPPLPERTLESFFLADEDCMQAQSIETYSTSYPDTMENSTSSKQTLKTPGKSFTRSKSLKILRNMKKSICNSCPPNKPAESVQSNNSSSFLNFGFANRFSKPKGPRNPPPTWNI
# [14] = target: T5, Low molecular weight phosphotyrosine protein phosphatase; assay type: functional; conditions: read-out: IC50_Mean; remark: listed apart in the source
# [15] = target: T7, Caspase-6 (Homo sapiens, UniProt P55212); assay: inhibition of CASP6 peptide cleavage – biochemical, VEID-R110 fluorescence, cherry-pick, dose response (AID 720632)
# T7 sequence (P55212 whole entry): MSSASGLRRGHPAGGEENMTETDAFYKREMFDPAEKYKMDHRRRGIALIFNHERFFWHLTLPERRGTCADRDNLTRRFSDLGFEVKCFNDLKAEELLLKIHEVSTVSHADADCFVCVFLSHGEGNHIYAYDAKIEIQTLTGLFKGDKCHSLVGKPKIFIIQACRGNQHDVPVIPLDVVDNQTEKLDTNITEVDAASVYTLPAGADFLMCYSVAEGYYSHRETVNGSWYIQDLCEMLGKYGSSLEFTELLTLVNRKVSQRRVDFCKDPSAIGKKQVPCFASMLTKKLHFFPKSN
# [16] = target: T8, Mitochondrial peptide methionine sulfoxide reductase (Bos taurus, UniProt P54149); assay type: functional;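 further: absorbance read-out, biochemical high-throughput dose-response screen for MsrA inhibitors, confirmatory; recombinant bovine MsrA coupled to E. coli TrxB with NADPH and selenocystamine; potency is for inhibitors of MsrA activity on DMSO substrate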
# T8 sequence (P54149 whole entry): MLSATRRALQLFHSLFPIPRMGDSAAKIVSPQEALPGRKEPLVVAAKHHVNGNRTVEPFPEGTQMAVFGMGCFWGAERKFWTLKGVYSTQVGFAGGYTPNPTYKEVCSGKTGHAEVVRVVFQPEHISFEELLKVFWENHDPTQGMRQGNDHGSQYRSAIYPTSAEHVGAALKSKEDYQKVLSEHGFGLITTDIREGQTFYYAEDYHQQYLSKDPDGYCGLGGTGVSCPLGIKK
# [17] = target: Beta Lactamase (Pseudomonas aeruginosa, UniProt Q932Y6);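 further: confirmatory high-throughput screen measuring VIM-2 metallo-beta-lactamase inhibition by epi-absorbance in dose response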
# Sequence of Beta Lactamase (Q932Y6 whole entry): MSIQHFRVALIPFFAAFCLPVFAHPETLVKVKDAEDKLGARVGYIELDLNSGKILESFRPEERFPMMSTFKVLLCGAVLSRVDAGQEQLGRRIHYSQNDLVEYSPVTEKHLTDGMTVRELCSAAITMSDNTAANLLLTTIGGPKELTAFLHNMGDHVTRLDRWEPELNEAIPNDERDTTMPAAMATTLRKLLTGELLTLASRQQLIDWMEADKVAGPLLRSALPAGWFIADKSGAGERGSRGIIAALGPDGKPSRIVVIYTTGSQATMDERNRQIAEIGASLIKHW
# [18] = target: Beta-lactamase (Pseudomonas aeruginosa, UniProt Q79MP6);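 further: biochemical dose-response test of metallo-beta-lactamase enzyme inhibition, read out by epi-absorbance; purified recombinant IMP-1 metallo-beta-lactamase with nitrocefin as substrate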
# Sequence of Beta-lactamase (Pseudomonas aeruginosa, UniProt Q79MP6) (Q79MP6 whole entry): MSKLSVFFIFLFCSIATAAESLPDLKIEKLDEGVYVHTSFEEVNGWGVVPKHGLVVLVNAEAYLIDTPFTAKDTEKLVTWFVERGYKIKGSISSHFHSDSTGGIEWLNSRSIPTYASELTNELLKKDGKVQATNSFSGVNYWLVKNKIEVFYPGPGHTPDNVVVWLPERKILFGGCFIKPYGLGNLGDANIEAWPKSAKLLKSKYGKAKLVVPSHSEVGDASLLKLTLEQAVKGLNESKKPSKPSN
# [19] = target: Beta-lactamase (Salmonella choleraesuis (strain SC-B67), UniProt Q5J463)
# Sequence of Beta-lactamase (Salmonella choleraesuis (strain SC-B67), UniProt Q5J463) (Q5J463 whole entry, the tested form may be a part): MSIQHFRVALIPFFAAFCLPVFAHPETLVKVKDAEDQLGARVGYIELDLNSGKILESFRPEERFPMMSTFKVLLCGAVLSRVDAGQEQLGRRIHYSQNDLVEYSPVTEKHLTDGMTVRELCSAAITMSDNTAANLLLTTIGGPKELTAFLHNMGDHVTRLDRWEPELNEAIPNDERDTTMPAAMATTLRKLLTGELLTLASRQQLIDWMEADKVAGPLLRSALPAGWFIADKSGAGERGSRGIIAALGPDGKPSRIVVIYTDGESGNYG
# [20] = target: T9, Sentrin-specific protease 1 (Homo sapiens, UniProt Q9P0U3); assay: SENP1 catalytic domain blockers, concentration series – biochemical, kinetic FRET, dose response (AID 651697); assay type: functional; conditions: read-out: IC50_Mean
# T9 sequence (Q9P0U3 whole entry): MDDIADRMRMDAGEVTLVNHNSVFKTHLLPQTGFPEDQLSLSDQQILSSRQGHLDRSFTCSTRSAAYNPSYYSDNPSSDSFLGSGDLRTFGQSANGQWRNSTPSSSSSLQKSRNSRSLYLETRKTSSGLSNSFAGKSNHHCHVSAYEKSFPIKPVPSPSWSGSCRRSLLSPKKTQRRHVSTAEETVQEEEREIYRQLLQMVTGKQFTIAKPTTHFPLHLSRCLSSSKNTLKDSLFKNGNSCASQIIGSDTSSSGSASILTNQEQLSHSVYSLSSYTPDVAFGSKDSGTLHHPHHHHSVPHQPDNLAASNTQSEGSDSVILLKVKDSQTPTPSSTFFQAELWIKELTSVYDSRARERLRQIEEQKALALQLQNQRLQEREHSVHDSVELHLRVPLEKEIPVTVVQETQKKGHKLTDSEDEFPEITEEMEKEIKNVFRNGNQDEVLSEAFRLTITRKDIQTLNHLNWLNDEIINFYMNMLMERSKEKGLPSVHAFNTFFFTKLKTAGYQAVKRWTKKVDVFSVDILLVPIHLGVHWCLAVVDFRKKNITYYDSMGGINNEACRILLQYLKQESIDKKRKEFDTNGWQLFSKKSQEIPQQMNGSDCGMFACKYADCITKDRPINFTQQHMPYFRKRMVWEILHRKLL
# [21] = target: T9, Sentrin-specific protease 1; assay: Dose response confirmation of small molecule inhibitors of the catalytic domain of the SUMO protease, SENP1 in a FRET assay.; assay type: functional; conditions: read-out: IC50_Mean
# [22] = target: T10, Interleukin-8 (Homo sapiens, UniProt P10145); assay: Dose Response confirmation of uHTS small molecule hits for cystic fibrosis induced NFkb Inhibitors in a TNFa-induced IL8 counterscreen.; assay type: functional; conditions: read-out: IC50_Mean
# T10 sequence (P10145 whole entry): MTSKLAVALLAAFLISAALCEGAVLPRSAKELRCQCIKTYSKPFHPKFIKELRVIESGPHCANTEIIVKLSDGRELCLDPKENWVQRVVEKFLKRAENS
# [23] = target: T10, Interleukin-8; assay: Dose Response confirmation of uHTS small molecule hits for cystic fibrosis induced NFkb Inhibitors in a PAF-induced IL8 counterscreen.; assay type: functional; conditions: read-out: IC50_Mean
structure (smiles),measurement,setting,value
O=C(Oc1cccc2cccnc12)c1ccco1,AC50,[1],131 µM (active)
Cc1c(CCC(=O)O)c(=O)oc2c(C)c(OCc3cc4c(cc3Cl)OCO4)ccc12,IC50,[2],17.4 µM (active)
same,IC50,[3],2.99 µM (active)
same,IC50,[4],78.7 µM (active)
same,IC50,[5],51.7 µM (active)
same,IC50,[6],3.17 µM (active)
same,IC50,[7],1.51 µM (active)
same,IC50,[8],3.97 µM (active)
same,IC50,[9],1.67 µM (active)
same,IC50,[10],> 66.6 µM (inactive)
same,IC50,[11],8.04 µM (active)
same,IC50,[12],10.3 µM (active)
same,IC50,[13],9 µM (active)
same,IC50,[14],24.9 µM (inactive)
same,AC50,[15],7.15 µM (active)
O=C(O)c1cccc(N/N=C/c2sc(N3CCOCC3)nc2-c2ccccc2)c1,IC50,[16],155 µM (inactive)
O=C1C2C(c3ccccc3)C=CC(c3ccccc3)C2C(=O)N1c1ccccn1 (stereo not drawn),IC50,[17],59.6 µM (inactive)
same,IC50,[18],11.5 µM (inactive)
same,IC50,[19],> 59.6 µM (inactive)
same,IC50,[20],10.8 µM (active)
same,IC50,[21],7.9 µM (active)
CNc1ccc2ncc(-c3cccc(C(=O)N(C)C)c3)n2n1,IC50,[22],> 79 µM (inactive)
same,IC50,[23],2.04 µM (active)
